This is an account of results in PMC12615518, “Discovery of CRBN-recruiting PROTAC degraders of the METTL3-METTL14 complex” (Medicinal Chemistry Research, 2025).

Experiment [1] has as its system MOLM13 cells. The experiment is described as follows: Cell viability assay (CCK-8) in MOLM13 cells. The format is cell-based, human. To be noted: CCK-8, normalized to vehicle. How it is done:
(§1) We proceeded to evaluate the cytotoxic activities of ZW30441 in AML cell lines by treating MOLM13 and MV4-11 cells with ZW30441 in increasing doses for 72 h.
(§2) Cell Lines and Culture Conditions: The human acute myeloid leukemia (AML) cell lines MOLM13 and MV4.11, as well as the HEK 293T epithelial kidney cell line, were obtained from the American Type Culture Collection (ATCC, USA). AML cells were maintained in RPMI-1640 medium (Gibco, USA) supplemented with 10% fetal bovine serum (FBS) and 1% penicillin-streptomycin (Sigma, Germany). HEK 293T cells were cultured in complete Dulbecco’s Modified Eagle Medium (DMEM) containing 10% FBS and 1% penicillin-streptomycin (Sigma). All cell lines were maintained under standard conditions in a humidified atmosphere at 37 °C with 5% CO₂.
(§3) Cell Viability Assay: AML cells were seeded in 96-well plates at a density of 5,000 cells per well and treated with varying concentrations of ZW30441 or vehicle (dimethyl sulfoxide, DMSO). Each condition was performed in triplicate. After the treatment period, cell viability was measured using the Cell Counting Kit-8 (CCK-8; APExBIO, USA, Cat# K1018) according to the manufacturer’s instructions. Absorbance was recorded at 450 nm using a SPECTROstar microplate reader (BMG LABTECH, USA).

The subject of experiment [2] is MV4-11 cells. The experiment is described as follows: Cell viability assay (CCK-8) in MV4-11 cells. It counts as cell-based. The following applies: Homo sapiens, MV4-11, 72 h, CCK-8, normalized to vehicle. As to the method: as §1, §2, §3
Experiment [3] concerns MOLM13 cells. Kind of experiment: Cell proliferation assay in MOLM13 cells. It counts as cell-based, human. The following applies: MOLM-13 cells, 5 µM, 4-day period. How it is done: as §1
Cell Proliferation Assay: To assess cell growth, 1×10⁵ cells were seeded per well in 24-well plates in triplicate and treated with 5 µM concentrations of the test compounds. The culture medium containing the compounds was refreshed every 48 hours, and cell densities were maintained below 1×10⁶ cells/mL through periodic dilution. Cell numbers were measured every other day over a 4-day period using a DS-11 automated cell counter (DeNovix, USA).

In experiment [4] the target is T1, METTL3 (Homo sapiens, UniProt Q86U44). Kind of experiment: Mechanism study: METTL3 Western blot in HEK293T cells after pretreatment with proteasome inhibitors or CRBN ligand. The following applies: then ZW30441 2.5 µM for 24 h. The format is cell-based. Also noted: endogenous in cells. How it is done:
We next explored the mechanisms of ZW30441-induced METTL3-METTL14 degradation. HEK293T cells were pretreated with the proteasome inhibitors bortezomib (0.1 µM) or MG132 (1 µM) for 2 h before ZW30441 (2.5 µM) administration (Fig. 4A).
Fig. 4 ZW30441 induced METTL3-METTL14 complex degradation through the ubiquitin-proteasome system and affected the survival of human AML cell lines. A Western blot analysis of METTL3 expression in HEK293T cells after pretreatment with the CRBN ligand pomalidomide (10 µM) or the proteasome inhibitors bortezamib (0.1 µM) or MG132 (1 µM) for 2 h, followed by treatment with ZW30441 (2.5 µM) for 24 h (left). Western blot analysis of METTL3 and METTL14 levels in MV4-11 cells after treatment with UHZ2, ZW30441, and the negative control ZW30441NC at the indicated concentration for 24 h (right). B Cell viability study of ZW30441 in MOLM13 and MV4-11 cell lines (left). […]
Western Blot Analysis: Following treatment, total cellular proteins were extracted using RIPA buffer (Auragene, Changsha, China). […] Band intensities were quantified using ImageJ software and normalized to ACTIN as a loading control. Data was analyzed using GraphPad Prism 9. Degradation efficiency was evaluated by calculating DC₅₀, the drug concentration required to reduce target protein levels by 50%, and Dₘₐₓ, the maximum level of degradation observed across all tested concentrations.
In general terms: In western blotting, separated proteins are transferred to a membrane and probed.

The target of experiment [5] is T1, METTL3. Kind of experiment: Immunoblotting (Western blot) degradation of METTL3 in MV4-11 cells. It counts as cell-based. Also noted: Following treatment, total cellular proteins were extracted using RIPA buffer; endogenous in cells; host or cells: MV4-11 (MV4.11) human AML cells, ATCC. As to the method: All cell lines were maintained under standard conditions in a humidified atmosphere at 37 °C with 5% CO₂.
Western Blot Analysis: Following treatment, total cellular proteins were extracted using RIPA buffer (Auragene, Changsha, China). […] After washing, membranes were incubated with horseradish peroxidase (HRP)-conjugated secondary antibodies (anti-rabbit or anti-mouse IgG; 1:5000) for 2 hours at room temperature. Protein bands were visualized using an enhanced chemiluminescence (ECL) detection kit (Amersham Pharmacia), following the manufacturer's protocol. Band intensities were quantified using ImageJ software and normalized to ACTIN as a loading control. Data was analyzed using GraphPad Prism 9.

“Also recorded” adds a separate entry of the source.

T1 sequence (Q86U44 2-580 limits assumed): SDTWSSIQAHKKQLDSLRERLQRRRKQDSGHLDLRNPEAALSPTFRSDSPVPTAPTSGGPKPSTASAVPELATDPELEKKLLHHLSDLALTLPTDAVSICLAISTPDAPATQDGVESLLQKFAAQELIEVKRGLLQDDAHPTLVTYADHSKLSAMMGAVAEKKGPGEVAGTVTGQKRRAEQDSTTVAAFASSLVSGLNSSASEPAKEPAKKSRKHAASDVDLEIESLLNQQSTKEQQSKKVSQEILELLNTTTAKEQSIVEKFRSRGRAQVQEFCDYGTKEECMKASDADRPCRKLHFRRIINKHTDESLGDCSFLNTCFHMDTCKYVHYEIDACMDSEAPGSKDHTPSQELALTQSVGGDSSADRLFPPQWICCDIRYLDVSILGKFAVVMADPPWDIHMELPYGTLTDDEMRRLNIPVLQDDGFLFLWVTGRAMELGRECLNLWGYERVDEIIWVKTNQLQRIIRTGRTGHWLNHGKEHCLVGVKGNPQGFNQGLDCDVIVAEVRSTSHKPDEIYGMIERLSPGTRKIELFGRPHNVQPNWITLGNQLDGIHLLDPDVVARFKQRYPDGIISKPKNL
T1 sequence (Q9HCE5 whole entry partner): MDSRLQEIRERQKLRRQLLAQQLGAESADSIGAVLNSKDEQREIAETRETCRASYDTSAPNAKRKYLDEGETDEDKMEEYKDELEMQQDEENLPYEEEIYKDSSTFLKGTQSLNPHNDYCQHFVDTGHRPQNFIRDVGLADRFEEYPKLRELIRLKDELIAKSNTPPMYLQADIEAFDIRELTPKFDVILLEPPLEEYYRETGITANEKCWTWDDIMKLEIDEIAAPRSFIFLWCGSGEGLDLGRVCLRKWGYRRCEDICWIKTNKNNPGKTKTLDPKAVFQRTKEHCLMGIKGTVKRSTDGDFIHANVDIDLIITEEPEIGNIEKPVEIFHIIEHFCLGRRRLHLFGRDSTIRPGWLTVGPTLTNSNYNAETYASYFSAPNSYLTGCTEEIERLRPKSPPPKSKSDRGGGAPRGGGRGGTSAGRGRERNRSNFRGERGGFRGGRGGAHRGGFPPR

`CC1(C)CCN(Cc2cc(F)c(N3CC(=O)NC4(CCN(c5cc(NCCCCCCCCCC(=O)N6CCN(c7ccc8c(c7)CN(C7CCC(=O)NC7=O)C8=O)CC6)ncn5)CC4)C3)cc2F)CC1` (centres unmarked) [Compound 4j, 3-(5-(4-(10-((6-(4-(4-((4,4-dimethylpiperidin-1-yl)methyl)-2,5-difluorophenyl)-2-oxo-1,4,9-triazaspiro[5.5]undecan-9-yl)pyrimidin-4-yl)amino)decanoyl)piperazin-1-yl)-1-oxoisoindolin-2-yl)piperidine-2,6-dione]: the EC50 (in general, the midpoint of the concentration-response curve) in experiment [1] (72 h, listed as ZW30441) came out at 1020 nM; in experiment [1] (Homo sapiens, MOLM-13, 72 h) it was 1020 nM; in experiment [2], 2410 nM. Also, the “cell growth inhibition compared to STM2457 and UZH2” value in experiment [3] was “comparable cell growth inhibition”. For the same compound, the “METTL3 degradation after pretreatment with proteasome inhibitors” value in experiment [4] (bortezomib (0.1 µM) or MG132 (1 µM) for 2 h) is “effectively blocked; also recorded: abrogated”. Also, the “METTL3 degradation after pretreatment with CRBN ligand pomalidomide” value in experiment [4] (pomalidomide 10 µM for 2 h) was “significantly reduced; also recorded: abrogated”. For the same compound, the Dmax – broadly, the largest share of the target that was removed – in experiment [5] (MV4-11, MV4-11 cells, 24 h) was 80%. The “% reduction in MV4-11 cells, 0.3 µM, METTL3” value in experiment [5] (MV4-11 cells, 0.3 µM, 24 h, immunoblotting, nd = no degradation) was 58%. In experiment [5] (MV4-11 cells, 1.0 µM, 24 h, immunoblotting, nd = no degradation), the “% reduction in MV4-11 cells, 1.0 µM, METTL3” value is recorded as 81%. For the same compound, the DC50 (as a rule, the midpoint of the concentration-degradation curve) in experiment [5] (MV4-11 cells, 24 h, Western blot normalized against ACTIN) turned out to be 440 nM. For the same compound, in experiment [5] (MV4-11 cells, time course at 1 µM), the “time of maximum degradation of METTL3” value worked out at 20 h.
